# From patent publication US10995067B2, “Treatment of Fabry disease” (Academia Sinica, priority 2016, dated 2021)
# Tests used:
# [1] = system: Wild-type human lymphocytes (08C0058); assay: Cytotoxicity assay using human lymphocytes (alamarBlue); format: cell-based; settings: concentration up to 200 μM; data not shown
# Method: Wild-type human lymphocytes (08C0058) were seeded in 96-well plates at a number of 50,000 cells/well. […] All compounds were dissolved in DMSO or H2O and control experiments were performed with DMSO. Cells were incubated at 37° C. in 5% CO2 for 48-72 h. Then, 10λ alamarBlue was added to cells suspended in medium, and the mixture was incubated for additional 3-5 hrs at 37° C. in 5% CO2.
# [2] = target: T1, β-galactosidase from human lysate (lysed human lymphocytes) (Homo sapiens, UniProt P16278); assay: Glycosidase activity assay: β-galactosidase; format: biochemical; settings: inhibitors tested at 100 μM
# T1 construct: endogenous in cells; host or cells: normal human lymphocytes (lysate, 62 μg/ml)
# T1 sequence (P16278 29-677): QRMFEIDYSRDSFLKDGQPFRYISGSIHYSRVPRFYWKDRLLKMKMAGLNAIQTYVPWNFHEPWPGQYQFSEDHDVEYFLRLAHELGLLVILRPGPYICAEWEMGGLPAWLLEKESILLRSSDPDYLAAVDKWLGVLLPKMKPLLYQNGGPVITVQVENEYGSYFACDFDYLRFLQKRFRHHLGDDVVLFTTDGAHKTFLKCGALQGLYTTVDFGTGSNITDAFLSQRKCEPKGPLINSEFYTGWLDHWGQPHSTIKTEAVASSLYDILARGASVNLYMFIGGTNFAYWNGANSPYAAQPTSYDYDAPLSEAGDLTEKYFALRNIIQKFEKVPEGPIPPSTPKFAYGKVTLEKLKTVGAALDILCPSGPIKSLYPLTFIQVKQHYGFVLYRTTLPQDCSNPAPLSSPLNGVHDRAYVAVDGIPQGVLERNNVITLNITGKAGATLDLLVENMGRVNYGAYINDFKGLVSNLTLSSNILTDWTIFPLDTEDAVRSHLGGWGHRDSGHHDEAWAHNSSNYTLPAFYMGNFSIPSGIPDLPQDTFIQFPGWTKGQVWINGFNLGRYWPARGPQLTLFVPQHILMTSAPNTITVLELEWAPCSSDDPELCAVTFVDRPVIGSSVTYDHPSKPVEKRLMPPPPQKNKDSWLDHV
# [3] = target: T2, α-mannosidase from Jack beans (Canavalia ensiformis, UniProt C0HJB3); assay: Glycosidase activity assay: α-mannosidase; format: biochemical; settings: inhibitors tested at 100 μM
# T2 construct: purchased
# T2 sequence (C0HJB3 1-981): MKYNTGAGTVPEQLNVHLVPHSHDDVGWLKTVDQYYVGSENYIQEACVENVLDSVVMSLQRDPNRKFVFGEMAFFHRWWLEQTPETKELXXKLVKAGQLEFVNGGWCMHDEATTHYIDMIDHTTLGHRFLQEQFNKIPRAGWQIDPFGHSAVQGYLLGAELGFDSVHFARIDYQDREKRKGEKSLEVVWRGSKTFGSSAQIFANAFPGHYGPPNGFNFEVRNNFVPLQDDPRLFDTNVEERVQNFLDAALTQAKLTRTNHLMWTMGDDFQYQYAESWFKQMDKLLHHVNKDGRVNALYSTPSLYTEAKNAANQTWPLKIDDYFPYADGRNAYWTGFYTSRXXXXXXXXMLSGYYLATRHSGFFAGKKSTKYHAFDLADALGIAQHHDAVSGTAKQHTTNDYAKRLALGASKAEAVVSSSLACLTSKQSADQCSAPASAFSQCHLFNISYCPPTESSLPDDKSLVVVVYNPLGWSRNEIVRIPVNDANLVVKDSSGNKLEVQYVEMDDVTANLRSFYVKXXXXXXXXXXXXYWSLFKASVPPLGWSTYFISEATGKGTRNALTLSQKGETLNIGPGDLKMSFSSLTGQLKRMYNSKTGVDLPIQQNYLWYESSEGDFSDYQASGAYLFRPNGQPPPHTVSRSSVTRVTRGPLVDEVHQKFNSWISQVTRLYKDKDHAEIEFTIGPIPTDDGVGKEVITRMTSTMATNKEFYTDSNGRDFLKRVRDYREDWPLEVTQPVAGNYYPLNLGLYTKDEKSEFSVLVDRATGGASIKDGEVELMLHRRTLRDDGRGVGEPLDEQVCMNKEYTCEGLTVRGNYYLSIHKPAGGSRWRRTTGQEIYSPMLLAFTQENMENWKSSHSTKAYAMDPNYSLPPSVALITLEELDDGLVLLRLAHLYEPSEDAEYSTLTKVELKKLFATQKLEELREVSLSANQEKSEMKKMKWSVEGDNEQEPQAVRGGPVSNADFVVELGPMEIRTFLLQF
# [4] = target: T3, rh-α-Gal A (recombinant human α-galactosidase A) (Homo sapiens, UniProt P06280); assay: biochemical; settings: read-out: Inhibition activity (%) rh-α-Gal A
# T3 sequence (P06280 32-429): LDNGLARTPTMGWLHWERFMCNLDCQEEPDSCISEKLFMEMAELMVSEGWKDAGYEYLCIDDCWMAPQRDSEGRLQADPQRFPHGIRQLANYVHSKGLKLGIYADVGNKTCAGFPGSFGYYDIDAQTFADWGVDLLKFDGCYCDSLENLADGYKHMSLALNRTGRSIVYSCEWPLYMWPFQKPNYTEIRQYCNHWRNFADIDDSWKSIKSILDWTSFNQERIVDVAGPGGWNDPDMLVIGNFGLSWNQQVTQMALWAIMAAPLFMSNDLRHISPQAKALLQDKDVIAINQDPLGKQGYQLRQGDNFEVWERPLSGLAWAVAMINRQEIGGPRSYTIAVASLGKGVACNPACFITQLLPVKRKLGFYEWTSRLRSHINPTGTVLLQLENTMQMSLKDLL
# Method: Libraries (20 μL) were diluted to give the final concentration of 20 μM, mixed with substrate 4-methylberiilyl α-D-galactopyranoside (20 μL) and recombinant human alpha-galactosidase (10 μL) in pH 4.6 buffer (50 μL), then assay was carried out at 37° C. for 15 min. […] The control group was a mixture of HBTU, DIEA, acid libraries (in total 20 μL), substrate (20 μL), buffer (50 μL) and enzyme (10 μL) excluded the amide products. Blank was a solution of substrate (20 μL) and enzyme (10 μL) in pH 4.6 buffer (70 μL). Inhibition was performed as relative enzyme activity to control.
# [5] = target: T4, α-galactosidase from coffee beans (Coffea arabica, UniProt Q42656); assay: Glycosidase activity assay: α-galactosidase (coffee beans); format: biochemical; settings: inhibitors tested at 100 μM
# T4 construct: purchased
# T4 sequence (Q42656 16-378): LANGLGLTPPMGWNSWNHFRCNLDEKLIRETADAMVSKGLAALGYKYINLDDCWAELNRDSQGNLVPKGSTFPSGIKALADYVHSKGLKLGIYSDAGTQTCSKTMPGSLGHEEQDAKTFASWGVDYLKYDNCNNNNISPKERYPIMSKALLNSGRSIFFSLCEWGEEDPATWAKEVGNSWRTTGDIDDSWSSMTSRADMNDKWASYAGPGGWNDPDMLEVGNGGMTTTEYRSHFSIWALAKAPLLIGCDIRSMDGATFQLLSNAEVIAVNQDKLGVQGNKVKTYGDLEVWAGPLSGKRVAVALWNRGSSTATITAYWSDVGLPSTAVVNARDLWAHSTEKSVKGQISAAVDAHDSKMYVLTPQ
smiles,measurement,setting,value
O=C(CCCCC1CCCCC1)NC[C@H]1N[C@H](CO)[C@H](O)[C@@H]1O [Compound 33],toxic effect in cell culture,[1],no toxic effect
same,Inhibition activity (%) β-galactosidase,[2],No inhibition
same,inhibition at 100 µM,[3],36%
same,inhibition at 100 µM,[4],97%
same,inhibition at 100 µM,[5],94%
